Where two headings read alike, the source gives them in different places.
Tests used:
P. falciparum Dd2 = assay: Malaria Sybr Green I Fluorescence assay Dd2 Horrocks; assay type: cell-based; details: Plasmodium falciparum, DD2, 48 h; read-out: P. falciparum Dd2 asexual blood stage EC50 Horrocks
In short: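 Dd2 asexual parasites started at 2% trophozoite-stage parasitaemia and 2% hematocrit; growth read by SYBR Green I fluorescence after 48 h. IC50 values taken from log dose-response curves.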

S. mansoni adult worms = S. mansoni adult worms LSHTM Bickle; assay type: cell-based, Schistosoma mansoni; details: 15 μM
Description: Columns DI-DJ, DL: Bickle group. (columns DI and DL data presented first in this paper, column DJ partially published in ref [95].). […] Male CD1 mice (aged 5–6 weeks) were bred on site using SPF conditions with access of food and water ab libitum. Worms were obtained by portal perfusion of CD1 mice (Charles River, UK) 6 weeks post-infection and 3 worm pairs added to the wells of 48 well plates (Nunc, UK) in 1 ml complete DMEM medium supplemented with 10% fetal calf serum (Gibco, UK), 2 mM L-glutamine, 100 U/ml penicillin, 100 µg/ml streptomycin (cDMEM). A primary adult worm screen was performed in which 400 MMV compounds were tested at 15 µM in 0.15% DMSO. Negative controls contained worms cultured in cDMEM alone and in cDMEM with 0.15% DMSO. Positive control wells contained worms cultured in Praziquantel (Sigma-Aldrich, UK) at 10 µM. Cultures were incubated at 37 °C and 5% CO2. Effects were assessed on day 5 of culture using an inverted microscope (Leitz Diavert Wetzlar, Germany). Any compounds producing complete immobility or ≥ 70% worm motility inhibition plus severe morphological damage were considered hits in the primary screen. […] IC50 for the compounds was calculated using Microsoft XLfit version 5.1.0.0 (2006-2008 ID Business Solutions Ltd). In vitro screening of S. mansoni schistosomula run at LSHTM (London): Schistosomula were prepared as previously reported with the modification of using a 45% and 70% Percoll gradient and the cercarial heads recovered from the 70% layer. All centrifugation steps were done at 350 xg. An appropriate volume of drug Stock was pre-added to wells in 96-well microtiter culture plates (Nunc, UK) containing 100 µl complete M169 (cM169). The wells were then topped up with another 100 µl of cM169 containing 100 schistosomula to give final concentrations of 15 µM of compound per well. Negative controls contained larvae cultured in cM169 alone and in cM169 with 0.5% DMSO. Positive control wells contained schistosomula cultured in Praziquantel (Sigma-Aldrich, UK) at 10 µM. Cultures were incubated at 37 °C and 5% CO2. Effects were assessed on day 3 of culture using an inverted microscope (Leitz Diavert Wetzlar, Germany). Any compounds producing complete immobility or ≥ 70% motility inhibition plus severe morphological damage were considered hits in the larval screen.

[1] = system: Trypanosoma brucei brucei 427; assay: T. brucei brucei Scynexis; assay type: cell-based
[2] = system: Mycobacterium tuberculosis mc26220 replicating; assay: microbe, parasite or virus in culture; assay type: cell-based
HepG2-A16-CD81EGFP cells = details: 50uM; ref [58, 65]; cited from earlier work
T. b. brucei Squib 427 = details: ref [84]; read-out: Trypansoma brucei brucei Squib 427 IC50; cited from earlier work
Haemonchus contortus = Haemonchus contortus Scynexis; assay type: cell-based; details: 10µM
[3] = system: MRC5SV2 human fibroblasts; details: read-out: MRC-5-Human-Fibroblasts EC50 (32000 >32µM); ref [84]; cited from earlier work
[4] = system: P. falciparum NF54 gametocytes stage I-V; set-up: method as in ref [58, 65] (a number printed in a supplementary file, which may have a reference list of its own: not looked up in the article's list); details: 12.5µM; ref [58, 65]; cited from earlier work
PfPMT = PfPMT (Plasmodium falciparum, UniProt Q8IDQ9); assay: PfPMT gene replacement yeast growth
[5] = Plasma protein binding human; assay type: in vitro ADME
Description: Columns GD-GJ: Wuxi Inc. data for MMV (data presented first in this paper) PK/DMPK Parameters: Fasted animals (Male CD-1 mouse, 7-9 weeks age, 30±10 g, n=3) obtained from an approved vendor (SLAC Laboratory Animal Co. Ltd., Shanghai, China or Sino-British SIPPR/BK Laboratory Animal Co. Ltd Shanghai, China) were administered with a single oral dose (140 μmol/kg) using DMSO: 1% HPMC (5:95) as a vehicle. Blood sampling was performed via the submandibular or saphenous vein (t=0.083, 0.25, 1, 2, 4, 6 and 9 h) and transferred into microcentrifuge tubes containing Sodium Heparin (1,000 IU/ml) as anti-coagulant placed on wet ice until processed for plasma by centrifugation at approximately 4°C, 3000×g for 15 min. Plasma samples were stored in polypropylene tubes, quick frozen over dry ice and kept at -70±10°C until LC/MS/MS analysis. LC/MS/MS methods for the quantitative determination compounds plasma levels were developed with an internal standard. […] (Phoenix WinNonlin, version 6.2.1, Pharsight, Mountain View, CA) and expressed as Cmax & AUC0-last. […] AUC0-last is the area under the curve expressed as >12 h*μM (Yes or No). Plasma protein binding assay (PPB) (CD-1 mouse and human) expressed as <95% bound, >95% bound, or >99% bound. Kinetic Solubility at pH 7.4 was determined by liquid chromatography/chemiluminescence nitrogen detection (LC/CLND) and was scored as greater than 20µM (Yes or No). hERG inhibition was measured at 11µM by the QPatch- HT system and is expressed as “Yes” if greater than 45% inhibited at 11µM and “No” if less than or equal to 45% inhibited at 11µM. As part of the Drug-Drug Interaction studies (DDI issues), 5 human and 1 mouse CYP isoforms (1A2, 2C9, 2C19, 2D6, 3A4-M, 3A4-T) were tested for inhibition assay at 10 µM. […] Otherwise DDI issues were scored as “No”. Positive and negative controls were run for each assay (Table 1).

[6] = read-out: % Inhibition in PfPMT gene replacement yeast, no added choline
[7] = read-out: % Inhibition in PfPMT gene replacement yeast, with added choline

PfPMT, sequence (Q8IDQ9 whole entry): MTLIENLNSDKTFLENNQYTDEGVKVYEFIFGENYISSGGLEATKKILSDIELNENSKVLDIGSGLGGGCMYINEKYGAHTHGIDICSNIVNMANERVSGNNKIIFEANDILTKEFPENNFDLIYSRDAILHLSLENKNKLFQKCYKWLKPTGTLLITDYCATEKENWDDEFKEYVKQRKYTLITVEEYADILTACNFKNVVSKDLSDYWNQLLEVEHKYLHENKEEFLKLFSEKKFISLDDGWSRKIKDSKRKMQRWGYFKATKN

Compound	EC50 (P. falciparum Dd2)	Schistosoma mansoni adult worm primary assay % Motility Reduction (Hit ≥ 70%) (S. mansoni adult worms)	inhibition at 5 µM [1]	inhibition at 25 µM [2]	HepG2 toxicity rep 1 (HepG2-A16-CD81EGFP cells)	HepG2 toxicity rep 2 (HepG2-A16-CD81EGFP cells)	IC50 (T. b. brucei Squib 427)	Haemonchus contortus 96hr % dead (Haemonchus contortus)	EC50 [3]	gametocyte Stage I % inhibition [4]	gametocyte Stage II % inhibition [4]	gametocyte Stage III % inhibition [4]	gametocyte Stage IV % inhibition [4]	gametocyte Stage V % inhibition [4]	inhibition at 100 µM (PfPMT; [6])	inhibition at 100 µM (PfPMT; [7])	fraction unbound [5]
CCN1CCN(c2cc(C)c3cc(NC(=O)c4ccc(OC)c(OC)c4)ccc3n2)CC1 [MMV019074]	1.85 µM	25%	45%	15%	1.64%	-0.0766%	4.78 µM	31%	5.46 µM	66%	32%	-6%	16%	9%	0%	0%	> 0.05
COc1ccc(C(=O)Nc2ccc3nc(N4CCCCC4)cc(C)c3c2)cc1OC [MMV019758]	0.614 µM	50%	-11%	21%	-1%	-1.21%	16.2 µM	75%	16.4 µM	72%	41%	3.44%	8%	0.3%	0%	0%	< 0.01
CCN(CC)c1cc(C)c2cc(NC(=O)c3cccc(OC)c3)ccc2n1 [MMV000498]	2.77 µM	0%	74%	19%	0.453%	-1.24%	14.3 µM	100%	15.3 µM	84%	43%	12%	1.56%	-1.9%	16%	0%	< 0.01
COc1cc2cc(C(=O)Nc3ccccc3)c(N)nc2cc1OC [MMV006767]	0.884 µM	0%	-54%	17%	82%	90%		57%	> 32 µM	96%	56%	26%	12%	23%	0%	0%	> 0.05
CCOC(=O)c1cnc2ccc(OC)cc2c1NCc1ccccc1 [MMV665813]	4.89 µM	0%	-25%	40%	-1.52%		14.9 µM	1%	> 32 µM	68%	46%	-0.559%	15%	12%	0%	0%	< 0.01
